Data as given in the NIST ThermoML archive (doi:10.1021/je050021e).
Numbers after ± are expanded uncertainties.

Test: xn = mol fraction of the nth substance listed
Settings: 101 kPa, Liquid

CC(=O)N1CCOCC1 [4-acetylmorpholine] + O
Settings | mass density [kg/m3] | viscosity [mPa·s]
298.15 K, x1 = 0.05 | 1034.97 ± 0.56 | 1.79 ± 0.05
298.15 K, x1 = 0.07 | 1046.13 ± 0.57 | 2.22 ± 0.07
298.15 K, x1 = 0.1 | 1060.06 ± 0.57 | 3.22 ± 0.09
298.15 K, x1 = 0.2 | 1087.71 ± 0.59 | 5.96 ± 0.16
298.15 K, x1 = 0.3 | 1100.16 ± 0.6 | 8.7 ± 0.22
298.15 K, x1 = 0.4 | 1106 ± 0.6 | 10.1 ± 0.3
298.15 K, x1 = 0.5 | 1108.55 ± 0.61 | 10.4 ± 0.3
298.15 K, x1 = 0.6 | 1109.77 ± 0.61 | 10.5 ± 0.3
298.15 K, x1 = 0.7 | 1110.29 ± 0.61 | 9.61 ± 0.24
298.15 K, x1 = 0.8 | 1110.46 ± 0.61 | 9.18 ± 0.24
298.15 K, x1 = 0.9 | 1110.4 ± 0.61 | 8.79 ± 0.23
298.15 K, x1 = 1 | 1110.33 ± 0.61 | 8.48 ± 0.23
303.15 K, x1 = 0.05 | 1032.47 ± 0.56 | 1.56 ± 0.05
303.15 K, x1 = 0.07 | 1043.32 ± 0.56 | 1.96 ± 0.06
303.15 K, x1 = 0.1 | 1056.85 ± 0.57 | 2.75 ± 0.08
303.15 K, x1 = 0.2 | 1083.85 ± 0.59 | 4.94 ± 0.14
303.15 K, x1 = 0.3 | 1095.95 ± 0.6 | 7.01 ± 0.18
303.15 K, x1 = 0.4 | 1101.68 ± 0.6 | 8.02 ± 0.2
303.15 K, x1 = 0.5 | 1104.19 ± 0.6 | 8.29 ± 0.21
303.15 K, x1 = 0.6 | 1105.39 ± 0.6 | 8.48 ± 0.22
303.15 K, x1 = 0.7 | 1105.93 ± 0.6 | 7.89 ± 0.21
303.15 K, x1 = 0.8 | 1106.12 ± 0.6 | 7.56 ± 0.2
303.15 K, x1 = 0.9 | 1106.08 ± 0.6 | 7.3 ± 0.2
303.15 K, x1 = 1 | 1106 ± 0.6 | 7.1 ± 0.2
313.15 K, x1 = 0.05 | 1027.12 ± 0.56 | 1.23 ± 0.04
313.15 K, x1 = 0.07 | 1037.36 ± 0.56 | 1.52 ± 0.05
313.15 K, x1 = 0.1 | 1050.17 ± 0.57 | 2.1 ± 0.06
313.15 K, x1 = 0.2 | 1075.73 ± 0.58 | 3.55 ± 0.1
313.15 K, x1 = 0.3 | 1087.43 ± 0.59 | 4.8 ± 0.14
313.15 K, x1 = 0.4 | 1092.98 ± 0.6 | 5.47 ± 0.15
313.15 K, x1 = 0.5 | 1095.41 ± 0.6 | 5.68 ± 0.16
313.15 K, x1 = 0.6 | 1096.65 ± 0.6 | 5.77 ± 0.16
313.15 K, x1 = 0.7 | 1097.23 ± 0.6 | 5.56 ± 0.16
313.15 K, x1 = 0.8 | 1097.4 ± 0.6 | 5.42 ± 0.15
313.15 K, x1 = 0.9 | 1097.41 ± 0.6 | 5.28 ± 0.15
313.15 K, x1 = 1 | 1097.35 ± 0.6 | 5.18 ± 0.15
323.15 K, x1 = 0.05 | 1021.29 ± 0.55 | 0.998 ± 0.032
323.15 K, x1 = 0.07 | 1031.03 ± 0.56 | 1.21 ± 0.04
323.15 K, x1 = 0.1 | 1043.19 ± 0.56 | 1.65 ± 0.05
323.15 K, x1 = 0.2 | 1067.57 ± 0.58 | 2.68 ± 0.08
323.15 K, x1 = 0.3 | 1078.79 ± 0.59 | 3.51 ± 0.1
323.15 K, x1 = 0.4 | 1084.2 ± 0.59 | 3.96 ± 0.11
323.15 K, x1 = 0.5 | 1086.6 ± 0.59 | 4.13 ± 0.12
323.15 K, x1 = 0.6 | 1087.84 ± 0.59 | 4.4 ± 0.13
323.15 K, x1 = 0.7 | 1088.43 ± 0.59 | 4.13 ± 0.12
323.15 K, x1 = 0.8 | 1088.71 ± 0.59 | 4.06 ± 0.12
323.15 K, x1 = 0.9 | 1088.78 ± 0.59 | 4 ± 0.12
323.15 K, x1 = 1 | 1088.74 ± 0.59 | 3.96 ± 0.12
333.15 K, x1 = 0.05 | 1015.01 ± 0.55 | 0.857 ± 0.028
333.15 K, x1 = 0.07 | 1024.27 ± 0.55 | 1.04 ± 0.03
333.15 K, x1 = 0.1 | 1035.89 ± 0.56 | 1.24 ± 0.04
333.15 K, x1 = 0.2 | 1059.2 ± 0.57 | 2.05 ± 0.06
333.15 K, x1 = 0.3 | 1069.99 ± 0.58 | 2.66 ± 0.08
333.15 K, x1 = 0.4 | 1075.32 ± 0.58 | 3 ± 0.09
333.15 K, x1 = 0.5 | 1077.66 ± 0.58 | 3.13 ± 0.09
333.15 K, x1 = 0.6 | 1078.93 ± 0.59 | 3.41 ± 0.1
333.15 K, x1 = 0.7 | 1079.63 ± 0.59 | 3.18 ± 0.09
333.15 K, x1 = 0.8 | 1079.97 ± 0.59 | 3.17 ± 0.09
333.15 K, x1 = 0.9 | 1080.1 ± 0.59 | 3.14 ± 0.09
333.15 K, x1 = 1 | 1080.14 ± 0.59 | 3.12 ± 0.1
343.15 K, x1 = 0.05 | 1008.29 ± 0.54 | 0.743 ± 0.025
343.15 K, x1 = 0.07 | 1017.17 ± 0.55 | 0.861 ± 0.028
343.15 K, x1 = 0.1 | 1028.29 ± 0.55 | 1.03 ± 0.03
343.15 K, x1 = 0.2 | 1050.63 ± 0.57 | 1.66 ± 0.05
343.15 K, x1 = 0.3 | 1061.11 ± 0.57 | 2.09 ± 0.06
343.15 K, x1 = 0.4 | 1066.32 ± 0.58 | 2.34 ± 0.07
343.15 K, x1 = 0.5 | 1068.66 ± 0.58 | 2.46 ± 0.07
343.15 K, x1 = 0.6 | 1070 ± 0.58 | 2.59 ± 0.08
343.15 K, x1 = 0.7 | 1070.82 ± 0.58 | 2.54 ± 0.08
343.15 K, x1 = 0.8 | 1071.21 ± 0.58 | 2.53 ± 0.08
343.15 K, x1 = 0.9 | 1071.43 ± 0.58 | 2.54 ± 0.08
343.15 K, x1 = 1 | 1071.55 ± 0.58 | 2.55 ± 0.08
